Results published in publication PMC10301603, “Potent and Selective Benzothiazole-Based Antimitotics with Improved Water Solubility: Design, Synthesis, and Evaluation as Novel Anticancer Agents” (Pharmaceutics, 2023).

How the values were obtained:
Format in all cases: cell-based, human
HT-29 cells = assay: Cell growth inhibition (MTT) in the presence of 10 µM verapamil (sensitivity to MDR efflux pumps); details: 10 µM verapamil (P-gp/MDR1 inhibitor)
U87MG cells [1] = assay: Cell cycle analysis (PI, flow cytometry); details: for combined G2/M plus subG0/G1 populations: over the three time points (24, 48, 72 h)
Experimental: An amount of 8 × 10^4 cells/mL (HeLa, MCF7, or U87 MG cells) were seeded in 6-well plates (2 mL/well) and incubated in complete DMEM medium (see above) at 37 °C and 5% CO2 atmosphere for 24 h. Then, the medium was replaced with fresh complete DMEM in the presence or absence of the selected compounds (8, 9, and 14). The concentration of the compounds was selected according to their IC50 value for the antiproliferative activity in each cell line (see above, Section 2.4.4). […] Untreated cells were used as negative controls. Cells were harvested 24, 48, or 72 h following treatment and fixed in ice-cold ethanol/PBS (7:3) overnight. Cells were then washed twice with PBS, suspended in PBS, and incubated overnight in darkness with 0.2 mg/mL RNase A (Sigma-Aldrich, St. Louis, MO, USA), 50 µg/mL propidium iodide (Sigma-Aldrich, St. Louis, MO, USA), and Triton 10× at room temperature. BD Accuri™ C6 Plus Flow Cytometer (BD Biosciences) was used to analyze samples, and BD Accuri™ C6 Software (version 1.0.264.21) was used for data analysis.

MCF7 cells = assay: Apoptotic cell death quantification (Annexin V-FITC/PI); details: MCF7, 72 h; 8 and 14 100 nM, 9 500 nM
Experimental: (§1) Annexin V-FITC/PI apoptosis detection kit (Immunostep, Salamanca, Spain) was used to quantify HeLa, MCF7, or U87 MG cells by following the manufacturer’s guidelines. An amount of 5 × 10^4 cells/mL were seeded in 12-well plates (1 mL/well) and incubated in complete DMEM medium (see above) at 37 °C and 5% CO2 atmosphere for 24 h. Then, the medium was replaced with fresh complete DMEM in the presence or absence of the selected compounds (8, 9, and 14). The concentration of the compounds was selected according to their IC50 value for the antiproliferative activity in each cell line (see above, Section 2.4.4). HeLa cells were treated with 200 nM of compounds 8 and 14 and 500 nM of compound 9; MCF7 cells were treated with 100 nM of compounds 8 and 14 and 500 nM of compound 9; and U87 MG cells were treated with 50 nM of compound 8 and 100 nM of compounds 9 and 14. Untreated cells were used as negative controls. After 72 h of incubation, cells were collected, centrifugated, resuspended in the Annexin V binding buffer, and stained with Annexin V-FITC/PI. Cells were then incubated in darkness for 15 min at room temperature. Samples were analyzed using BD Accuri™ C6 Plus Flow Cytometer (BD Biosciences), and acquired data were analyzed using BD Accuri™ C6 Software (version 1.0.264.21).

HeLa cells = assay: as above; details: 72 h, 8 and 14 200 nM, 9 500 nM
Experimental: as §1

U87MG cells [2] = assay: as above; details: U87 MG, 72 h; 8 50 nM, 9 and 14 100 nM
Experimental: as §1

HEK-293 cells = assay: Lactate dehydrogenase (LDH) release assay; details: HEK-293, 72 h; for LDH release: 100 µM
Experimental: CytoTox96® Non-Radioactive Cytotoxicity Assay kit (Promega, Madison, WI, USA) was used to measure the release of lactate dehydrogenase (LDH) by following the previously described method in [46]. […] After treatment, the supernatants were collected, and the intact attached cells were lysed using 0.1% (w/v) Triton X-100 in (0.9%) NaCl solution. Both the LDH released to culture media, as well as the LDH content within the cells, were determined spectrophotometrically at 490 nm on a 96-well plate reader (Infinite 200, Tecan, Salzburg, Austria) by following the manufacturer’s instructions. LDH release was defined by the ratio of LDH released/total LDH present in the cells, with the total LDH being 100%. All the samples were run in quadruplicate.

U87MG cells [3] = assay: Cell growth inhibition assay (MTT); details: for IC50: MTT, 72 h after drug exposure
Summary of the method: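 Following overnight (24 h) attachment, cultures received serial compound concentrations from 10^−10 to 10^−2 M and were incubated 72 h before MTT viability measurement. Where efflux-pump sensitivity was tested, IC50 was redetermined with 10 µM verapamil present.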

[4] = 24 h, 8 50 nM, 14 and 9 200 nM (Figure 6 legend; 100 nM in methods)

Compound	IC50 (HT-29 cells)	G2/M population (U87MG cells [1]; [4])	SubG0/G1 population (U87MG cells [1]; [4])	combined G2/M plus subG0/G1 populations (U87MG cells [1])	Alive cells (PI−, AnV−) (MCF7 cells)	apoptosis (apoptotic cells) (MCF7 cells)	early and late apoptosis (apoptotic cells) (HeLa cells)	cells in early or late apoptosis (response to Annexin V) (U87MG cells [2])	LDH release (HEK-293 cells)	selectivity index against U87MG (U87MG cells [3]; HEK-293 versus U87MG)	IC50 (U87MG cells [3])	cytotoxic effect by LDH release (in words) (HEK-293 cells; between 0.1 and 1 µM)	IC50 (U87MG cells [3]; Homo sapiens, U-87 MG)
CCNC(=O)N(Cc1cccnc1)c1nc2ccc(OC)cc2s1 [Compound 8]	215 nM	39%	41%	~85%	46%	47%	93%	80%	~30%	~900	9 nM	–	–
COc1ccc2nc(N(C=O)Cc3cccnc3)sc2c1 [Compound 14, N-(6-methoxybenzo[d]thiazol-2-yl)-N-(pyridin-3-ylmethyl)formamide]	307 nM	–	–	roughly 75%	–	71%	86%	67%	~30%	–	–	No significant cytotoxic effects	37 nM
